In this experiment the test system is P388 leukemia ip, CD2F1 mice, survival T/C. The experiment in a line: NCI In Vivo Anticancer Drug Screen. Data for tumor model P388 Leukemia (intraperitoneal) in CD2F1 (CDF1) mice. The conditions noted are these: endpoint: median survival time, higher = longer survival. Summed up: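 Mice carrying the transplanted tumor received test compound or vehicle. Survival was recorded in each group, and the value is the treated-group measurement divided by that of the vehicle-treated control group.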

The mark [1] stands for this setting: dose: 100.0 mg/kg/injection, schedule: Q01DX001 (ip), vehicle: saline with Tween-80.
[2] abbreviates: dose: 200.0 mg/kg/injection, schedule: Q01DX001 (ip), vehicle: saline with Tween-80.
Setting [3] is: dose: 400.0 mg/kg/injection, schedule: Q01DX001 (ip), vehicle: saline with Tween-80.
[4] abbreviates: dose: 60.0 mg/kg/injection, schedule: Q01DX005 (ip), vehicle: saline with Tween-80.
Setting [5] is: dose: 120.0 mg/kg/injection, schedule: Q01DX005 (ip), vehicle: saline with Tween-80.
The mark [6] stands for this setting: dose: 240.0 mg/kg/injection, schedule: Q01DX005 (ip), vehicle: saline with Tween-80.
[7] abbreviates: dose: 25.0 mg/kg/injection, schedule: Q01DX009 (ip), vehicle: saline with Tween-80.
[8] abbreviates: dose: 50.0 mg/kg/injection, schedule: Q01DX009 (ip), vehicle: saline with Tween-80.
Where [9] appears, read: dose: 100.0 mg/kg/injection, schedule: Q01DX009 (ip), vehicle: saline with Tween-80.
Where [10] appears, read: dose: 50.0 mg/kg/injection, schedule: Q01DX005 (ip), vehicle: saline with Tween-80.
Where [11] appears, read: dose: 12.5 mg/kg/injection, schedule: Q01DX005 (ip), vehicle: saline with Tween-80.
[12] abbreviates: dose: 25.0 mg/kg/injection, schedule: Q01DX005 (ip), vehicle: saline with Tween-80.

SMILES strings stand for the structures. “And” between values parts separate entries of the source, which are not always exact repeats. Identical values can stand only once. Inconclusive results and toxic doses are left out. Peptide text beside a SMILES is read from it. * marks the point of attachment. Bz = O=C(c1ccccc1)*; Bn = c1ccc(C*)cc1; βAla = NCCC(=O)O

`Nc1nc(N)c2nc(CNc3ccc(C(=O)NC(CCC(=O)O)C(=O)O)cc3)cnc2n1` (stereo not drawn): the T/C is, setting by setting: (dose: 0.03 mg/kg/injection, schedule: Q01DX009 (ip), vehicle: clinical formulation) 105 % of control; (dose: 0.04 mg/kg/injection, schedule: Q01DX009 (ip), vehicle: clinical formulation) 120 % of control.

For the molecule `CC(CC(N)=O)Cc1ccccc1` (stereo not drawn), the T/C is, setting by setting: under setting [1], 104 % of control; under setting [2], 103 % of control; under setting [3], 104 % of control.

With `Cc1nc(N)c(C#N)c(-c2ccccc2)c1-c1ccccc1`, the T/C runs as follows: under setting [1], 92 % of control; under setting [2], 90 % of control; under setting [3], 106 % of control.

For the molecule `C=CCC1CCC/C1=N\O` (stereo not drawn), the T/C was 105 % of control under setting [4], 104 % of control under setting [5] and 100 % of control under setting [6].

Take `Nc1[nH]c(=O)ncc1-c1ccc(Cl)cc1`: the T/C by setting is: under setting [4], 97 % of control; under setting [5], 96 % of control.

With `Cn1c(=S)[nH]c2sc3c(c2c1=O)CCCCC3`, the T/C was 101 % of control under setting [4], 97 % of control under setting [5] and 90 % of control under setting [6].

Regarding `CN(/N=C/c1ccc2c(c1)OCO2)c1ccc([N+](=O)[O-])cc1`, the T/C is, setting by setting: (dose: 50.0 mg/kg/injection, schedule: Q01DX005 (ip), vehicle: Klucel (hydroxypropylcellulose) (HPC)) 89 % of control; (dose: 100.0 mg/kg/injection, schedule: Q01DX005 (ip), vehicle: Klucel (hydroxypropylcellulose) (HPC)) 89 % of control.

Regarding `CCN(CC)C(=O)C1CCCCN1Cc1c[nH]c2ccccc12` (stereo not drawn), the T/C was 104 % of control (dose: 12.5 mg/kg/injection, schedule: Q01DX009 (ip), vehicle: saline with Tween-80); 109 % of control under setting [7]; 101 % of control under setting [8]; 99 % of control under setting [9].

Regarding `CC1=C(C(N)=O)C(c2ccc([N+](=O)[O-])cc2)NC(=S)N1` (stereo not drawn), the T/C is 92 % of control (dose: 60.0 mg/kg/injection, schedule: Q01DX005 (ip), vehicle: Klucel (hydroxypropylcellulose) (HPC)); 90 % of control (dose: 120.0 mg/kg/injection, schedule: Q01DX005 (ip), vehicle: Klucel (hydroxypropylcellulose) (HPC)); 92 % of control (dose: 240.0 mg/kg/injection, schedule: Q01DX005 (ip), vehicle: Klucel (hydroxypropylcellulose) (HPC)).

Turning to `OCCC(N1CCOCC1)C(O)(c1ccccc1)c1ccccc1` (stereo not drawn), the T/C reads like this: under setting [4], 93 % of control; under setting [5], 93 % of control; under setting [6], 97 % of control.

For `COC(=O)C(CSCc1ccccc1)NC(=O)C(CSCc1ccccc1)NC(=O)CCNC(=O)c1ccccc1` (stereo not drawn) ({Bz-βAla}-Cys(Bn)-Cys(Bn)-OMe; configuration not given here), the T/C is, setting by setting: (dose: 12.5 mg/kg/injection, schedule: Q01DX009 (ip), vehicle: distilled water + Tween-80) 92 % of control; (dose: 25.0 mg/kg/injection, schedule: Q01DX009 (ip), vehicle: distilled water + Tween-80) 89 % of control; (dose: 50.0 mg/kg/injection, schedule: Q01DX009 (ip), vehicle: distilled water + Tween-80) 90 % of control; (dose: 100.0 mg/kg/injection, schedule: Q01DX009 (ip), vehicle: distilled water + Tween-80) 94 % of control.

For the molecule `CCCCN(CCNc1ccc(C)c2sc3ccccc3c(=O)c12)CC(C)O` (stereo not drawn), the T/C by setting is: under setting [10], 101 % of control; (dose: 100.0 mg/kg/injection, schedule: Q01DX005 (ip), vehicle: saline with Tween-80) 104 % of control; (dose: 200.0 mg/kg/injection, schedule: Q01DX005 (ip), vehicle: saline with Tween-80) 101 % of control.

Turning to `COc1cc2c(cc1OC)-c1ccc(OC)c(=O)cc1CC(NC(=O)C(C)=O)C2` (stereo not drawn), the T/C is, setting by setting: (dose: 0.63 mg/kg/injection, schedule: Q01DX009 (ip), vehicle: Klucel (hydroxypropylcellulose) (HPC)) 153 % of control; (dose: 1.25 mg/kg/injection, schedule: Q01DX009 (ip), vehicle: Klucel (hydroxypropylcellulose) (HPC)) 105 % of control; (dose: 78.0 micrograms/kg/injection, schedule: Q01DX009 (ip), vehicle: Klucel (hydroxypropylcellulose) (HPC)) 120 % of control; (dose: 625.0 micrograms/kg/injection, schedule: Q01DX009 (ip), vehicle: Klucel (hydroxypropylcellulose) (HPC)) 151 % of control.

`CCCCCCCCCCCCCCCCCCCCCCCCCCCCCCO`: the T/C under setting [7] was 86 % of control; the T/C under setting [8] is 101 % of control; the T/C under setting [9] was 96 % of control; the T/C (dose: 200.0 mg/kg/injection, schedule: Q01DX009 (ip), vehicle: saline with Tween-80) is 92 % of control.

Take `COc1cccc2c1C(=O)c1c(O)c3c(c(O)c1C2=O)CC(O)(/C(C)=N/NC(=O)CCCCCC(=O)N/N=C(\C)C1(O)Cc2c(O)c4c(c(O)c2C(OC2CC(N)C(O)C(C)O2)C1)C(=O)c1c(OC)cccc1C4=O)CC3OC1CC(N)C(O)C(C)O1` (stereo not drawn): the T/C (dose: 0.78 mg/kg/injection, schedule: Q01DX009 (ip), vehicle: water) was 158 % of control; the T/C (dose: 1.56 mg/kg/injection, schedule: Q01DX009 (ip), vehicle: water) is 157 % of control and 163 % of control; the T/C (dose: 3.13 mg/kg/injection, schedule: Q01DX009 (ip), vehicle: water) was 153 % of control and 154 % of control; the T/C (dose: 6.25 mg/kg/injection, schedule: Q01DX009 (ip), vehicle: water) was 200 % of control and 202 % of control; the T/C (dose: 12.5 mg/kg/injection, schedule: Q01DX009 (ip), vehicle: water) was 88 % of control and 93 % of control.

As for `C/C=C/c1ccccc1N/N=C(\Cl)C(=O)OCC`, the T/C by setting is: (dose: 3.75 mg/kg/injection, schedule: Q01DX005 (ip), vehicle: saline with Tween-80) 107 % of control; (dose: 7.5 mg/kg/injection, schedule: Q01DX005 (ip), vehicle: saline with Tween-80) 99 % of control; under setting [11], 99 % of control; (dose: 15.0 mg/kg/injection, schedule: Q01DX005 (ip), vehicle: saline with Tween-80) 119 % of control; under setting [12], 106 % of control; under setting [10], 118 % of control. Besides, the T/C under setting [8] was 117 % of control.

In the case of `Cc1ccc(NC(=S)C#N)cc1Cl`, the T/C is, setting by setting: (dose: 6.25 mg/kg/injection, schedule: Q01DX005 (ip), vehicle: saline with Tween-80) 90 % of control; under setting [11], 92 % of control; under setting [12], 90 % of control.

Take `CC(=O)C1=C(O)/C(=C\c2ccccc2)OC1=O`: the T/C (dose: 50.0 mg/kg/injection, schedule: Q01DX009 (ip), vehicle: Klucel (hydroxypropylcellulose) (HPC)) was 92 % of control and the T/C (dose: 100.0 mg/kg/injection, schedule: Q01DX009 (ip), vehicle: Klucel (hydroxypropylcellulose) (HPC)) was 107 % of control.

On to `CC(C)(C)N=C(Cc1ccccc1)N1CCCCC1`, for which the T/C reads like this: under setting [8], 100 % of control; under setting [9], 96 % of control.

In the case of `COc1c2occc2cc2ccc(=O)oc12`, the T/C runs as follows: (dose: 8.0 mg/kg/injection, schedule: Q01DX009 (ip), vehicle: saline with Tween-80) 89 % of control; (dose: 11.0 mg/kg/injection, schedule: Q01DX009 (ip), vehicle: saline with Tween-80) 111 % of control; (dose: 16.0 mg/kg/injection, schedule: Q01DX009 (ip), vehicle: saline with Tween-80) 87 % of control; (dose: 22.0 mg/kg/injection, schedule: Q01DX009 (ip), vehicle: saline with Tween-80) 102 % of control; under setting [7], 121 % of control; (dose: 32.0 mg/kg/injection, schedule: Q01DX009 (ip), vehicle: saline with Tween-80) 100 % of control. The T/C (dose: 44.0 mg/kg/injection, schedule: Q01DX009 (ip), vehicle: saline with Tween-80) is 104 % of control; the T/C under setting [8] is 116 % of control; the T/C (dose: 64.0 mg/kg/injection, schedule: Q01DX009 (ip), vehicle: saline with Tween-80) is 88 % of control; the T/C (dose: 88.0 mg/kg/injection, schedule: Q01DX009 (ip), vehicle: saline with Tween-80) is 107 % of control; the T/C under setting [9] is 117 % of control; the T/C (dose: 128.0 mg/kg/injection, schedule: Q01DX009 (ip), vehicle: saline with Tween-80) was 106 % of control. Besides, the T/C (dose: 256.0 mg/kg/injection, schedule: Q01DX009 (ip), vehicle: saline with Tween-80) is 94 % of control.

For the molecule `C/C=C(/C)C(=O)O[C@H]1C[C@H](C(C)C)c2cc(C)c(O)cc2[C@H]1C`, the T/C was 100 % of control (dose: 57.5 mg/kg/injection, schedule: Q01DX001 (ip), vehicle: Klucel (hydroxypropylcellulose) (HPC)); 97 % of control (dose: 115.0 mg/kg/injection, schedule: Q01DX001 (ip), vehicle: Klucel (hydroxypropylcellulose) (HPC)); 99 % of control (dose: 230.0 mg/kg/injection, schedule: Q01DX001 (ip), vehicle: Klucel (hydroxypropylcellulose) (HPC)).

Values taken from PubChem BioAssay AID330 (DTP/NCI, 2004).
